Results: patent US7659251B2, “Ligand for G-protein coupled receptor FPRL2” (priority 2004, dated 2010)

Tests used:
FPRL2 = biological target: T1, FPRL2 (Homo sapiens, UniProt P25089); assay: Aequorine assay on human FPRL2 expressing cells (Example 9); type: cell-based; set-up: expressed in transfected cells; host or cells: CHO-K1 (with or without Galpha16 and apoaequorin); settings: peptides 2.5 μM to 0.4 nM, Mab 500 ug/ml to 5 ug/ml; FIG. 15
T1 sequence (P25089 1-353): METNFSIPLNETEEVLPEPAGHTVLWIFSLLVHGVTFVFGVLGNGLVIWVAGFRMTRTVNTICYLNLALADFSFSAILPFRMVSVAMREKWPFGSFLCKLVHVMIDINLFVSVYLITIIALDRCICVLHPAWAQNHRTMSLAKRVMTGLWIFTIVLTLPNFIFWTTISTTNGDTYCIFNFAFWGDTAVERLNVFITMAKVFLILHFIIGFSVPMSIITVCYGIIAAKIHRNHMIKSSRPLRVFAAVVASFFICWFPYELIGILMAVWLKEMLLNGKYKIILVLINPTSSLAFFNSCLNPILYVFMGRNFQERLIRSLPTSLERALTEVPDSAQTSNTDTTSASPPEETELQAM
Description: Functional responses were analyzed by recording the luminescence of aequorine in human FPRL2 and FPRL1 expressing cells following the addition of agonists or purified monoclonal antibodies.
In brief, cells were collected from plates with PBS containing 5 mM EDTA, pelleted, resuspend at 5×10^6 cells/ml in DMEM/F-12 medium containing 0.1% bovine serum albumin, incubated with 5 μM coelenterazine H (molecular probes, Inc. Eugene, Oreg.) for 4 h at room temperature and diluted in DMEM/F-12 medium at a concentration of 5×10^5 cells/ml. Cells where then mixed in an 96 wells plate with the ligands or purified monoclonal antibodies. The light emission was recorded over 60 sec using a microlumat Luminometer (EG&G Berthold, microplate luminometer LB 96V).
Each data point is in duplicate. […] Human FPRL1 expressing cells were used as negative control to Mab. Functionality of these cells has been control with Humanin.

monocyte-derived DCs = assay: Ca2+ mobilization assay on monocyte-derived DCs; type: cell-based, human; settings: dose-dependent; FIG. 13A
Description: (§1) Monocyte-derived DCs were generated either from the adherent fraction of PBMCs cultured with GM-CSF (800 U/ml) and […] (500 U/ml), or from Percoll-purified monocytes cultured with GM-CSF (50 ng/ml) and IL-13 (20 ng/ml), for 5 to 7 days. For Ca^2+ mobilization assay, monocytes were obtained by negative selection with the Monocyte Isolation Kit II (Miltenyi Biotec). […] For Ca^2+ mobilization assays, monocyte-derived DCs or monocytes (5×10^5 cells/ml in HBSS without phenol red but containing 0.1% BSA and 1 mM Probenecid (Sigma)) were loaded with 4 μM Fluo 4 (Molecular Probes) for 1 h at 20° C. in the dark. The loaded cells were washed twice, resuspended at 1 to 2×10^6 cells/ml and 50 μl of cell suspension was distributed per well of a 96 well plate (Viewplate, Packard Bioscience). Reading was performed in a Fluostar fluorimeter (BMG) at 25° C.: 50 μl of ligand-containing medium was injected, and the fluorescence at 520 nm was recorded every second for 1 to 3 min. Each condition was performed in triplicate, the mean fluorescence for each time point was calculated, and the curves were normalized by subtracting the mean value of the five measurements preceding the injection.

ERK1/2 MAP-kinases = assay: ERK1/2 activation by Western blotting in FPRL2-expressing CHO-K1 cells; type: cell-based, human
Description: The cAMP concentrations were determined using a homogeneous time-resolved fluorescence (HTRF) kit (Cis Bio International). Briefly, cells were detached, resuspended in Krebs Ringer Hepes buffer containing 1 mM 3-Isobutyl-1-methylxanthine, and submitted to 10 μM forskolin, alone or together with increasing concentrations of agonists for 30 min at room temperature. The reaction was stopped by the successive addition of cAMP-XL665 and anti-cAMP cryptate diluted in lysis buffer. The plates were incubated for 60 min at room temperature and read on a Rubystar fluorimeter (BMG). […] A calibration curve was obtained by plotting delta F % versus cAMP concentrations. ERK1/2 activation was assayed by Western blotting, using an anti-phospho-p42/44 monoclonal antibody (E10, Cell Signaling Technology) as described (46). The aequorin-based assay was performed with or without overnight pretreatment with 100 ng/ml Pertussis toxin. […] For FPRL2 polymorphism analysis, HEK cells were transiently transfected with empty and wild-type or Asp338H is FPRL2-containing pcdna vector using calcium phosphate method. Cells were recovered 48 hours later and used for FACS or cAMP experiments.

FPRL1 = biological target: T2, FPRL1 (Homo sapiens, UniProt P25090); assay: Competition binding on FPRL1-expressing CHO-K1 cells, tracer [125I]-WKYMVm; settings: up to concentrations of 3 μM
T2 construct: expressed in transfected cells; host or cells: CHO-K1 (with or without Galpha16 and apoaequorin)
T2 sequence (P25090 1-351): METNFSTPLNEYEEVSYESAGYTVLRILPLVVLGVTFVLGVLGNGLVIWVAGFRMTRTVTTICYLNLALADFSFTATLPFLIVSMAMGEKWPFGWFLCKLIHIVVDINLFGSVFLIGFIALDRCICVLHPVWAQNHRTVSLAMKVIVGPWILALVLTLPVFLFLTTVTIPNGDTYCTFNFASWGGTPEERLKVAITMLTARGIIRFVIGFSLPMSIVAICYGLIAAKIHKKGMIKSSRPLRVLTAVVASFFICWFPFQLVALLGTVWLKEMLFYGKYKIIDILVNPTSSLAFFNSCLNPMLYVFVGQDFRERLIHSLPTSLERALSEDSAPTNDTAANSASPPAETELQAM
Description: FPRL2, FPRL1 and FPR-expressing CHO-K1 cells were plated in 24 wells plates (200,000 cells per well for FPRL2, and 100,000 cells per well for the two other receptors). The next day, the cells were washed twice with a KRH buffer containing 280 mM saccharose and, for FPRL1 and FPR, 0.1 % NaN3. […] Cells were washed twice with ice cold buffer, total radioactivity was recovered with 1 M […] and counted in a gamma counter for […]

monocytes = assay: Ca2+ mobilization assay on monocytes; type: cell-based, human; settings: 100 nM F2L; FIG. 13C
Description: as §1

Structure (SMILES): CC[C@H](C)[C@H](NC(=O)[C@H](CCSC)NC(=O)CNC(=O)[C@H](CC(C)C)NC(=O)[C@H](CCSC)NC(C)=O)C(=O)N[C@@H](CCCCN)C(=O)N[C@@H](CC(N)=O)C(=O)N[C@@H](CO)C(=O)N[C@@H](CC(C)C)C(=O)N[C@@H](Cc1ccccc1)C(=O)NCC(=O)N[C@@H](CO)C(=O)N[C@H](C(=O)N[C@@H](CCC(=O)O)C(=O)N[C@H](C(=O)N[C@@H](Cc1c[nH]c2ccccc12)C(=O)N1CCC[C@H]1C(=O)N[C@@H](Cc1c[nH]c2ccccc12)C(=O)N[C@@H](CCC(N)=O)C(=O)N[C@H](C(=O)N[C@@H](CC(C)C)C(=O)O)C(C)C)[C@@H](C)O)C(C)C [F2L]
- activation of human FPRL2 expressing cells (FPRL2): activates
- intracellular Ca2+ flux in immature DCs (monocyte-derived DCs): promoted intracellular Ca^2+ flux
- time of maximal ERK1/2 phosphorylation (ERK1/2 MAP-kinases; 100 nM F2L, FIG. 11J): 15 min
- concentrations inducing phosphorylation of the ERK1/2 MAP-kinases (ERK1/2 MAP-kinases; stimulation for 10 min, FIG. 11I): picomolar concentrations
- competition for FPRL1 binding (FPRL1): no competition
- calcium mobilization in purified monocytes (monocytes): Calcium mobilization was also observed
